Values quoted from earlier work, collected in patent US20150148324A1 (VALPHARMA INTERNATIONAL S.P.A., priority 2012, published 2015).

Tested on: uterine fibroma
Conditions: daily oral 5 mg for 6 months, versus higher doses

**Q.** With `CC#C[C@]1(O)CC[C@H]2[C@@H]3CCC4=CC(=O)CCC4=C3[C@@H](c3ccc(N(C)C)cc3)C[C@@]21C` [Mifepristone] as the molecule, how does the “effect in the treatment of uterine fibroma” value read?
**A.** The value was “effects comparable with those of higher doses of Mifepristone”.
